Source: ChEMBL document CHEMBL5321285 (J Med Chem, 2023)
Active and inactive are the calls of the source. The rule behind the calls is not given here.

Key:
[1] = biological target: T1, Sigma non-opioid intracellular receptor 1 (Homo sapiens, UniProt Q99720); experiment: Binding affinity to sigma1 receptor (unknown origin) assessed as inhibition constant
[2] = biological target: T2, Sigma intracellular receptor 2 (Homo sapiens, UniProt Q5BJF2); experiment: Binding affinity to sigma2 receptor (unknown origin) assessed as inhibition constant
[3] = biological target: T2, Sigma intracellular receptor 2; experiment: Displacement of [3H]-1,3-di-O-tolylguanidine from human sigma 2 receptor/TMEM97 transfected in sigma 1 receptor knockout HEK293 cell membranes assessed as inhibition constant measured after 120 mins by microbeta scintillation counting analysis; design: species or system Cell membrane
[4] = Metabolic stability in human liver microsome assessed as parent compound remaining at 1 uM measured after 1 hr in presence of NADPH regenerating system by UPLC-MS/MS analysis; type: ADME; settings: liver microsomes, read-out: Stability
Homo sapiens = species on record: Homo sapiens; experiment: Selectivity ratio of Ki for displacement of [3H]-(+)-pentazocine from human sigma1 receptor transfected in HEK293 cell membranes assessed as inhibition constant to Ki for displacement of [3H]-1,3-di-O-tolylguanidine from human sigma 2 receptor/TMEM97 transfected in sigma 1 receptor knockout HEK293 cell membranes assessed as inhibition constant
[5] = Metabolic stability in mouse liver microsome assessed as parent compound remaining at 1 uM measured after 1 hr in presence of NADPH regenerating system by UPLC-MS/MS analysis; type: ADME; settings: liver microsomes, read-out: Stability
[6] = biological target: T1, Sigma non-opioid intracellular receptor 1; experiment: Displacement of [3H]-(+)-pentazocine from human sigma1 receptor transfected in HEK293 cell membranes assessed as inhibition constant incubated for 120 mins in presence of haloperidol by microbeta scintillation counter analysis; design: species or system Cell membrane
[7] = biological target: Voltage-gated inwardly rectifying potassium channel KCNH2 (Homo sapiens, UniProt Q12809); experiment: Inhibition of hERG expressed in CHO cells at holding potential of -80 mV measured for 15 seconds by whole cell patch clamp assay; type: toxicity, cell-based
[8] = Metabolic stability in rat liver microsome assessed as parent compound remaining at 1 uM measured after 1 hr in presence of NADPH regenerating system by UPLC-MS/MS analysis; type: ADME; settings: liver microsomes, read-out: Stability
Neuron = experiment: Neuroprotective activity against MPP+ induced rat neurons at 10 uM pretreated with compond for 1 hr followed by MPP+ addition and measured after 48 hrs; type: functional, cell-based; settings: time 49.0 hrs
[9] = Binding affinity to sigma1 receptor (unknown origin) assessed as inhibition constant
[10] = biological target: Sigma non-opioid intracellular receptor 1 (Cavia porcellus, UniProt Q60492)
Description: Displacement of [3H](+)-pentazocine from sigma 1 receptor in guinea pig brain membranes assessed as inhibition constant incubated for 120 mins in presence of haloperidol

[11] = biological target: T3, Sigma intracellular receptor 2 (Rattus norvegicus, UniProt Q5U3Y7); experiment: Displacement of [3H]di-o-tolylguanidine from rat liver membrane sigma 2 receptor assessed as inhibition constant in presence of haloperidol; type: cell membranes
T3 sequence (Q5U3Y7 whole entry): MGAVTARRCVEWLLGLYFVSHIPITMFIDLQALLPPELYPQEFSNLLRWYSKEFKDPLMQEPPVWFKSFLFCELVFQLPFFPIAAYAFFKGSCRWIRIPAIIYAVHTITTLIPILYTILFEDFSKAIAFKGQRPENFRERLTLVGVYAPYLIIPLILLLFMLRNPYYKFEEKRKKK

[12] = biological target: Sigma non-opioid intracellular receptor 1 (Rattus norvegicus, UniProt Q9R0C9); experiment: Displacement of [3H](+)-pentazocine from rat liver membranes sigma 1 receptor assessed as inhibition constant incubated for 120 mins; type: cell membranes, Membrane
[13] = biological target: T3, Sigma intracellular receptor 2; experiment: Displacement of [3H]di-o-tolylguanidine from rat liver membrane sigma 2 assessed as inhibition constant incubated for 120 mins; type: cell membranes

Voltage-gated inwardly rectifying potassium channel KCNH2, sequence (Q12809 whole entry): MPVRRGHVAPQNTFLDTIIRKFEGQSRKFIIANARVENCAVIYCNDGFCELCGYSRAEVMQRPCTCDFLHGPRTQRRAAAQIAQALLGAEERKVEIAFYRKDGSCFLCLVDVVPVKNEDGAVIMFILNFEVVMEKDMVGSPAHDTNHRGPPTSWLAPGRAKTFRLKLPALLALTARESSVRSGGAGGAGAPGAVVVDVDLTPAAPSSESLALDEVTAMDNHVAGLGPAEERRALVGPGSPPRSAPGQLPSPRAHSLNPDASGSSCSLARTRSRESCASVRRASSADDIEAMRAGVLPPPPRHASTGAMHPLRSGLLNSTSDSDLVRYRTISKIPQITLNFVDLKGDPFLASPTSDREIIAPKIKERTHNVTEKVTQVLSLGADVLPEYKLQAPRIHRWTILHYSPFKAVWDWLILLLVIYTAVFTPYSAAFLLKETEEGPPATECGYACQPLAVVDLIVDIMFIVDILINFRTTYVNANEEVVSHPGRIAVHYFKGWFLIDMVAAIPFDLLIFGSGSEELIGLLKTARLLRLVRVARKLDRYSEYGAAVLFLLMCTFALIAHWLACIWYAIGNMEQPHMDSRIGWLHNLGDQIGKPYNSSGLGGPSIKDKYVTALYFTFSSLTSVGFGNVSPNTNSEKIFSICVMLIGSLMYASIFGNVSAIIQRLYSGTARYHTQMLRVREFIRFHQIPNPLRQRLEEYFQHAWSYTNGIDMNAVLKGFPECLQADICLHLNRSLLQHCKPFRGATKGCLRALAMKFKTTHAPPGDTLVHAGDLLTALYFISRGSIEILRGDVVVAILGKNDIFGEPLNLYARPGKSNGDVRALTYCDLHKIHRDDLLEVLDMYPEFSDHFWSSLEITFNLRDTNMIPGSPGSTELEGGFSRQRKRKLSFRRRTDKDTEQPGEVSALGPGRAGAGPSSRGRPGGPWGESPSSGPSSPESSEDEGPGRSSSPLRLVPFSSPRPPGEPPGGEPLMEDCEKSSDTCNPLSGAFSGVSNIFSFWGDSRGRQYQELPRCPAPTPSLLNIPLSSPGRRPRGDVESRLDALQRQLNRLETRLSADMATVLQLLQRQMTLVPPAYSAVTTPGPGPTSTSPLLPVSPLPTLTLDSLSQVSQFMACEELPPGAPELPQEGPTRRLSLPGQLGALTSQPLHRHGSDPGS
T2 sequence (Q5BJF2 whole entry): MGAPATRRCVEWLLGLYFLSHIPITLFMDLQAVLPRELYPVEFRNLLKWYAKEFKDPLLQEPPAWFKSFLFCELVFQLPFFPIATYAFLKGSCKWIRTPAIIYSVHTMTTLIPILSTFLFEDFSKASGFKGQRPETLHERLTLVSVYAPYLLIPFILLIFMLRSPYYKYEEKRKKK
T1 sequence (Q99720 whole entry): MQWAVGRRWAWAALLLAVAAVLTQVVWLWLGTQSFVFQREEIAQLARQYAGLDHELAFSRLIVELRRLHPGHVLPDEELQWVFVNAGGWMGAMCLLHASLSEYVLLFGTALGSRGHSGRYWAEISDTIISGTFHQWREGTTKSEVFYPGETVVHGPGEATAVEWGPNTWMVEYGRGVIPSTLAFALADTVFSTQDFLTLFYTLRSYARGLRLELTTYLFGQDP
Sigma non-opioid intracellular receptor 1 (Cavia porcellus, UniProt Q60492), sequence (Q60492 whole entry): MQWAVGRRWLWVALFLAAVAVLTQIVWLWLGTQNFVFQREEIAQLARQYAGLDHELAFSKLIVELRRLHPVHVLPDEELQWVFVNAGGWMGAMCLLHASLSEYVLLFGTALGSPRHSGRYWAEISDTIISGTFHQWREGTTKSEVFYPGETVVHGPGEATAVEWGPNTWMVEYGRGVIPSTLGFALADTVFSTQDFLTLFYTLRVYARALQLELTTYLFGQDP
Sigma non-opioid intracellular receptor 1 (Rattus norvegicus, UniProt Q9R0C9), sequence (Q9R0C9 whole entry): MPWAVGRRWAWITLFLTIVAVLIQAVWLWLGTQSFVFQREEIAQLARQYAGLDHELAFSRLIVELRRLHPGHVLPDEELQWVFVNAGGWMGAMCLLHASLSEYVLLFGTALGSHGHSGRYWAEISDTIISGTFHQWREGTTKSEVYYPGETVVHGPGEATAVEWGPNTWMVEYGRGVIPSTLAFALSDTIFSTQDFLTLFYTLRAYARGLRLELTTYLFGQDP

Row | Ki [3] [nM] | remaining at 1 h, 1 µM [4] [%] | remaining at 1 h, 1 µM [5] [%] | Ki [6] [nM] | remaining at 1 h, 1 µM [8] [%] | SMILES | Ratio Ki (Homo sapiens) | IC50 [7] [nM] | other results
1 | 59 | 104 | 87 | 8270 | 100 | Cc1cc(-c2cnc(C)nc2C2CCN(CC(=O)N3CCOCC3)CC2)on1 | 140 | > 10000 | 
2 | 1 | 86 | 97 | 789 | 84 | Cc1cc(-c2cnc(C3CC3)nc2C2CCN(CC(=O)N3CCOCC3)CC2)on1 | 789 | 4200 | 
3 | 38 | 75 | 56 | 150 | 67 | CCc1ncc(-c2cc(C)no2)c(C2CCN(CCN3CCOCC3)CC2)n1 |  | > 10000 | 
4 | 5 | 77 | 69 | > 1000 | 84 | CCc1ncc(-c2cc(C)no2)c(C2CCN(CC(=O)N3CCCOCC3)CC2)n1 | > 200 | > 10000 | 
5 | 1 | 82 | 88 | 2150 | 92 | CCc1ncc(-c2cc(C)no2)c(C2CCN(CC(=O)N3CCC4(CCOC4)CC3)CC2)n1 | 2150 | > 10000 | 
6 | 4 | 58 | 59 | 882 | 101 | CCc1ncc(-c2cc(C)no2)c(C2CCN(CC(=O)N3CCCCC3)CC2)n1 | 220 | 8700 | 
7 | 6 | 78 | 77 | > 1000 | 71 | Cc1cc(-c2cnc(C(F)(F)F)nc2C2CCN(CC(=O)N3CCOCC3)CC2)on1 | > 166 | > 10000 | 
8 | 47 | 80 | 65 | > 1000 | 81 | Cc1cc(-c2cnc(C(C)C)nc2C2CCN(CC(=O)N3CCOCC3)CC2)on1 | > 21 | 3600 | 
9 | > 1000 |  |  | > 1000 |  | CCc1ncc(-c2cc(C)no2)c(C2CCN(CC(=O)N3CCOCC3)C2)n1 (stereo not given) |  |  | 
10 | 61 | 89 | 89 | > 1000 | 90 | CCCc1ncc(-c2cc(C)no2)c(C2CCN(CC(=O)N3CCOCC3)CC2)n1 | > 16 | 5400 | 
11 | 98 | 85 | 83 | > 1000 | 97 | CCc1ncc(-c2cc(C)no2)c(C2CCN(CC(=O)N3CCCN(C)CC3)CC2)n1 | > 10 | > 10000 | 
12 | 788 |  |  | > 10000 |  | CCc1ncc(-c2cc(C)no2)c([C@H]2CCCN(CC(=O)N3CCOCC3)C2)n1 |  |  | 
13 | 164 |  |  | > 10000 |  | CCc1ncc(-c2cc(C)no2)c([C@@H]2CCCN(CC(=O)N3CCOCC3)C2)n1 |  |  | 
14 | 457 |  |  | > 1000 |  | Cc1cc(-c2cncnc2C2CCN(CC(=O)N3CCOCC3)CC2)on1 | > 2 |  | 
15 | 62 | 86 | 94 | > 1000 | 95 | CCc1ncc(-c2cc(C)no2)c(C2CCN(CCC(=O)N3CCOCC3)CC2)n1 |  | 4500 | 
16 | 131 |  |  | 237 |  | CCc1ncc(-c2cc(C)no2)c(C2CCCN(CC(=O)N3CCOCC3)CC2)n1 (stereo not given) |  |  | 
17 | > 1000 |  |  | > 1000 |  | Cc1cc(-c2cnc(C)nc2C2CCN(C(=O)CN3CCOCC3)CC2)on1 |  |  | 

The remaining lines, values behind:

Row | SMILES | Ki [3] [nM] | remaining at 1 h, 1 µM [4] [%] | remaining at 1 h, 1 µM [5] [%] | Ki [6] [nM] | remaining at 1 h, 1 µM [8] [%] | Ratio Ki (Homo sapiens) | IC50 [7] [nM] | other results
18 | COc1cc2c(cc1OC)CN(CCCCn1c(=O)n(C)c3ccccc31)CC2 |  |  |  |  |  |  |  | Ki [1]: 560 nM; Ki [2]: 0.43 nM
19 | CCc1ncc(-c2ccncc2)c(C2CCN(CC(=O)N3CCOCC3)CC2)n1 | 727 |  |  | 807 |  | 1.1 |  | 
20 | CCc1ncc(-c2nccn2C)c(C2CCN(CC(=O)N3CCOCC3)CC2)n1 | 951 |  |  | > 10000 |  | > 10 |  | 
21 | CCn1ncc(-c2cc(C)no2)c1C1CCN(CC(=O)N2CCOCC2)CC1 | > 1000 |  |  | > 1000 |  |  |  | 
22 | CCc1ncc(-c2cccc(C)n2)c(C2CCN(CC(=O)N3CCOCC3)CC2)n1 | 116 | 83 | 76 | > 1000 | 96 | > 8.6 |  | 
23 | OCCCN1CCCC2CC1c1cc(-c3ccc(C(F)(F)F)cc3)ccc12 (stereo not given) |  |  |  |  |  |  |  | Ki [1]: 1280 nM; Ki [2]: 46 nM
24 | CCc1ncc(-c2ccccn2)c(C2CCN(CC(=O)N3CCOCC3)CC2)n1 | 319 |  |  | > 1000 |  | > 3 |  | 
25 | CC(C)(C)Oc1cc(CCC(C)(C)N2Cc3ccc(S(C)(=O)=O)cc3C2)ccc1O | 5 | 60 | 62 | 23 | 37 | 4.6 |  | Activity (Neuron): Active; Ki [2]: 8 nM; Ki [9]: 63 nM
26 | CN1CC[C@]2(c3cccc(O)c3)CC(=O)/C(=C/c3ccc(Cl)c(Cl)c3)[C@H]1C2 |  |  |  |  |  |  |  | Ki [10]: 7440 nM; Ki [11]: 13.4 nM
27 | CCn1cc(-c2cc(C)no2)c(C2CCN(CC(=O)N3CCOCC3)CC2)n1 | 496 |  |  | > 1000 |  |  |  | 
28 | CC(=O)c1ccc2c(c1)oc(=O)n2CCCCN1CCN(c2ccc(F)cc2N)CC1 |  |  |  |  |  |  |  | Ki [12]: 87 nM; Ki [13]: 3.5 nM
29 | O=C(CN1CCC(CN2Cc3ccccc3C2=O)CC1)c1ccc(F)cc1 [ROLUPERIDONE] |  |  |  |  |  |  |  | Ki [1]: ≥ 1000 nM
